Assay results: patent US20230381157A1, “RIFABUTIN FOR THE TREATMENT OF ACINETOBACTER BAUMANNII” (University of Southern California, priority 2018, published 2023)
In brackets after ≈: the same amount, converted by molar mass. Several values for one entry are separate records, joined by “and”; a condition that tells them apart may be missing. Equal entries are not always repeated.

How the values were obtained:
A. baumannii HUMC1 = test: MIC, broth microdilution in MHII, RPMI or modified media; type: cell-based, Acinetobacter baumannii; details: for Rifabutin MIC: clinical isolate HUMC1
LAC-4 = type: in vivo, Galleria mellonella; details: G. mellonella
HEK293T = test: Specificity: mammalian cell cytotoxicity / inhibition of bacteria growth (CC50/IC50)

Q: Which results are given for `CO[C@H]1/C=C/O[C@@]2(C)Oc3c(C)c(O)c4c(c3C2=O)C2=NC3(CCN(CC(C)C)CC3)NC2=C(NC(=O)/C(C)=C\C=C\[C@H](C)[C@H](O)[C@@H](C)[C@@H](O)[C@@H](C)[C@H](OC(C)=O)[C@@H]1C)C4=O` [rifabutin]?
A: MIC (A. baumannii HUMC1; Acinetobacter baumannii, HUMC1, HUMC1, 5 × RPMI): < 0.0625 µg/mL; MIC (A. baumannii HUMC1; Acinetobacter baumannii, HUMC1, HUMC1, 10-30 kDa MHII Fraction spiked into RPMI): 8 µg/mL (≈ 9.44 µM); MIC (A. baumannii HUMC1; Acinetobacter baumannii, HUMC1, HUMC1, 25° C., MHII): 4 µg/mL (≈ 4.72 µM); MIC (A. baumannii HUMC1; Acinetobacter baumannii, HUMC1, HUMC1, 25° C., RPMI): < 0.06 µg/mL; MIC (A. baumannii HUMC1; Acinetobacter baumannii, HUMC1, HUMC1, <10 kDa MHII Fraction spiked into RPMI): 8 µg/mL (≈ 9.44 µM); MIC (A. baumannii HUMC1; Acinetobacter baumannii, HUMC1, HUMC1, Low Salt Luria Broth): 2 µg/mL; MIC (A. baumannii HUMC1; Acinetobacter baumannii, HUMC1, HUMC1, Luria Broth): 1 µg/mL (≈ 1.18 µM); MIC (A. baumannii HUMC1; Acinetobacter baumannii, HUMC1, HUMC1, M9): < 0.05 µg/mL; MIC (A. baumannii HUMC1; Acinetobacter baumannii, HUMC1, HUMC1, MHII (CAMHB)): 4 µg/mL (≈ 4.72 µM); MIC (A. baumannii HUMC1; Acinetobacter baumannii, HUMC1, HUMC1, MHII + 200 mg/L glucose): 2 µg/mL; MIC (A. baumannii HUMC1; Acinetobacter baumannii, HUMC1, HUMC1, MHII + 2,000 mg/L glucose): 2 µg/mL; MIC (A. baumannii HUMC1; Acinetobacter baumannii, HUMC1, HUMC1, MHII + Non-Essential Amino Acid Solution (100×)): 3.12 µg/mL; MIC (A. baumannii HUMC1; Acinetobacter baumannii, HUMC1, HUMC1, No Salt Luria Broth): 1 µg/mL; MIC (A. baumannii HUMC1; Acinetobacter baumannii, HUMC1, HUMC1, Non tissue culture treated 96-well plates): 1.56 µg/mL (≈ 1.84 µM); MIC (A. baumannii HUMC1; Acinetobacter baumannii, HUMC1, HUMC1, RPMI + CCCP (2 μg/mL) + Essential Amino Acids): 1.56 µg/mL; MIC (A. baumannii HUMC1; Acinetobacter baumannii, HUMC1, HUMC1, RPMI + Essential Amino Acid Solution (50×)): 1.56 µg/mL; MIC (A. baumannii HUMC1; Acinetobacter baumannii, HUMC1, HUMC1, RPMI + Glutamic Acid 0.5 mM): < 0.048 µg/mL; MIC (A. baumannii HUMC1; Acinetobacter baumannii, HUMC1, HUMC1, RPMI + Glycine 0.5 mM): < 0.048 µg/mL; MIC (A. baumannii HUMC1; Acinetobacter baumannii, HUMC1, HUMC1, RPMI + L-Arginine 0.5 mM): < 0.048 µg/mL; MIC (A. baumannii HUMC1; Acinetobacter baumannii, HUMC1, HUMC1, RPMI + L-Histidine 0.5 mM): 1.56 µg/mL; MIC (A. baumannii HUMC1; Acinetobacter baumannii, HUMC1, HUMC1, RPMI + L-Tryptophan 0.125 mM): 1.56 µg/mL; MIC (A. baumannii HUMC1; Acinetobacter baumannii, HUMC1, HUMC1, RPMI + Leucine 1 mM): < 0.048 µg/mL; MIC (A. baumannii HUMC1; Acinetobacter baumannii, HUMC1, HUMC1, RPMI + Non-Essential Amino Acid Solution (100×)): 0.781 µg/mL; MIC (A. baumannii HUMC1; Acinetobacter baumannii, HUMC1, HUMC1, RPMI + Organic Layer, Proteinase K Digested): 4 µg/mL; MIC (A. baumannii HUMC1; Acinetobacter baumannii, HUMC1, HUMC1, RPMI + Organic layer, Sodium Periodate Treated): 4 µg/mL; MIC (A. baumannii HUMC1; Acinetobacter baumannii, HUMC1, HUMC1, RPMI + acetonitrile treated <10 kDa MHII fraction, Aqueous Layer): < 0.0312 µg/mL; MIC (A. baumannii HUMC1; Acinetobacter baumannii, HUMC1, HUMC1, RPMI + acetonitrile treated <10 kDa MHII fraction, Organic Layer): 4 µg/mL; MIC (A. baumannii HUMC1; Acinetobacter baumannii, HUMC1, HUMC1, RPMI + efflux pump inhibitor CCCP (2 μg/mL)): < 0.05 µg/mL; MIC (A. baumannii HUMC1; Acinetobacter baumannii, HUMC1, HUMC1, RPMI + efflux pump inhibitor thioridazine (16 μg/mL)): 12.5 µg/mL; MIC (A. baumannii HUMC1; Acinetobacter baumannii, HUMC1, HUMC1, RPMI Supplemented with MHII (hybrid media, equal parts)): 8 µg/mL (≈ 9.44 µM); MIC (A. baumannii HUMC1; Acinetobacter baumannii, HUMC1, HUMC1, Tissue culture treated 96-well plates): 1.56 µg/mL (≈ 1.84 µM); MIC (A. baumannii HUMC1; HUMC1, 5 × RPMI, listed as RBT): 0.06 µg/mL (≈ 0.0708 µM); MIC (A. baumannii HUMC1; HUMC1, 10-30 kDa MHII Fraction spiked into RPMI, listed as RBT): 8.00 µg/mL (≈ 9.44 µM); difference in MICs at lower temperature (A. baumannii HUMC1; HUMC1, 25° C. or 30° C. compared to 37° C., MHII or RPMI): did not observe any difference; MIC (A. baumannii HUMC1; HUMC1, 25° C., MHII, listed as RBT): 4.00 µg/mL (≈ 4.72 µM); MIC (A. baumannii HUMC1; HUMC1, 25° C., RPMI, listed as RBT): 0.05 µg/mL (≈ 0.059 µM); MIC (A. baumannii HUMC1; HUMC1, <10 kDa MHII Fraction spiked into RPMI, listed as RBT): 8 µg/mL and 8.00 µg/mL; effect of added iron on MIC (A. baumannii HUMC1; HUMC1, FeCl3 spiked into RPMI at 0.01, 0.10, and 0.30 μg/mL): did not have any effect; MIC (A. baumannii HUMC1; HUMC1, MHII (CAMHB in b45)): 3.125 µg/mL (≈ 3.69 µM); MIC (A. baumannii HUMC1; HUMC1, MHII (CAMHB in b45), listed as Rifabutin): 3.125 µg/mL and 6.25 µg/mL; MIC (A. baumannii HUMC1; HUMC1, MHII (CAMHB), listed as RBT): 4.00 µg/mL and 6.25 µg/mL; MIC (A. baumannii HUMC1; HUMC1, RPMI): 0.0156 µg/mL (≈ 0.0184 µM); MIC (A. baumannii HUMC1; HUMC1, RPMI + Glutamic Acid 0.5 mM, listed as RBT): 0.05 µg/mL; MIC (A. baumannii HUMC1; HUMC1, RPMI + Glycine 0.5 mM, listed as RBT): 0.05 µg/mL; MIC (A. baumannii HUMC1; HUMC1, RPMI + L-Arginine 0.5 mM, listed as RBT): 0.05 µg/mL; MIC (A. baumannii HUMC1; HUMC1, RPMI + Leucine 1 mM, listed as RBT): 0.05 µg/mL; MIC (A. baumannii HUMC1; HUMC1, RPMI + Non-Essential Amino Acid Solution (100×), listed as RBT): 0.78 µg/mL; MIC (A. baumannii HUMC1; HUMC1, RPMI + Organic Layer, Proteinase K Digested, listed as RBT): 4.00 µg/mL; MIC (A. baumannii HUMC1; HUMC1, RPMI + Organic layer, Sodium Periodate Treated, listed as RBT): 4.00 µg/mL; MIC (A. baumannii HUMC1; HUMC1, RPMI + acetonitrile treated <10 kDa MHII fraction, Aqueous Layer, listed as RBT): 0.03 µg/mL; MIC (A. baumannii HUMC1; HUMC1, RPMI + acetonitrile treated <10 kDa MHII fraction, Organic Layer, listed as RBT): 4.00 µg/mL; MIC (A. baumannii HUMC1; HUMC1, RPMI + efflux pump inhibitor CCCP (2 μg/mL), listed as RBT): 0.05 µg/mL; MIC (A. baumannii HUMC1; HUMC1, RPMI Supplemented with MHII (hybrid media, equal parts)): 8 µg/mL (≈ 9.44 µM); MIC (A. baumannii HUMC1; HUMC1, RPMI Supplemented with MHII (hybrid media, equal parts), listed as RBT): 8.00 µg/mL (≈ 9.44 µM); fold lower MIC of RBT as compared to RIF (A. baumannii HUMC1; HUMC1, RPMI, listed as RBT): 133 fold and 200 fold; Rifabutin MIC (A. baumannii HUMC1; MHII): 3.12 µg/mL; Rifabutin MIC (A. baumannii HUMC1; RPMI): 0.0156 µg/mL; efficacy RBT vs RIF (LAC-4): no difference in efficacy; Specificity HEK293T (CC50/IC50) (HEK293T; IC50 vs A. baumannii ATCC 17978, RPMI + 50% serum): 506006.298; Specificity HEK293T (CC50/IC50) (HEK293T; IC50 vs A. baumannii ATCC 17978, RPMI alone): 1961.478; Specificity HEK293T (CC50/IC50) (HEK293T; IC50 vs A. baumannii HUMC1, RPMI + 50% serum): 97331.320; Specificity HEK293T (CC50/IC50) (HEK293T; IC50 vs A. baumannii HUMC1, RPMI alone): 33559.242; Specificity HEK293T (CC50/IC50) (HEK293T; top screen hits, IC50 against A. baumannii HUMC1 in 50% serum): 148.31
